Measured values published in patent publication US5773459A, “Urea- and thiourea-type compounds” (Sugen, Inc., priority 1995, dated 1998).
Like-named read-outs stand apart in the source and are kept apart here.

Test system: HUV-EC-C cells (human umbilical vein endothelial cells)
Assay: HUV-EC-C Flk-1 assay (3H-thymidine incorporation)
Type: cell-based
Conditions: Endothelial cell
Method: The HUV-EC-C Flk-1 assay can be performed as follows:
1. Wash and trypsinize HUV-EC-C cells (human umbilical vein endothelial cells, American Type Culture Collection; catalogue no. 1730-CRL). Wash with Dulbecco's phosphate-buffered saline (D-PBS; obtained from Gibco BRL; catalogue no. 14190-029) 2 times at about 1 ml/10 cm^2 of tissue culture flask. Trypsinize with 0.05% trypsin-EDTA in non-enzymatic cell dissociation solution (Sigma Chemical Company; catalogue no. C-1544). The 0.05% trypsin was made by diluting 0.25% trypsin/l mM EDTA (Gibco; catalogue no. 25200-049) in the cell dissociation solution. Trypsinize with about 1 ml/25-30 cm^2 of tissue culture flask for about 5 minutes at 37° C. After cells have detached from the flask, add an equal volume of D-PBS and transfer to a 50 ml sterile centrifuge tube (Fisher Scientific; catalogue no. 05-539-6).
2. Wash the cells with about 35 ml D-PBS in the 50 ml sterile centrifuge tube by adding the D-PBS, centrifuge for 10 minutes at approximately 200×g, aspirate the supernatant, and resuspend with 35 ml D-PBS. Repeat the wash two more times, resuspend the cells in about 1 ml assay medium/15 cm^2 of tissue culture flask. Assay medium consists of F12K medium (Gibco BRL; catalogue no. 21127-014)+0.5% heat-inactivated fetal bovine serum. […]

SMILES: CC(C)S(=O)(=O)c1csc(NC(=O)Nc2ccc(C(C)(C)C)cc2)c1Cl [Example Z1, N-[3-Chloro-4-(isopropylsulfonyl)thien-2-yl]-N'-(4-t-butylphenyl)urea]
- IC50 (VEGF stimulated, read-out: GROWTH DATA: HUV-EC-C/VEGF): 2.9 µM
- IC50 (aFGF stimulated, read-out: GROWTH DATA: HUV-EC-C/aFGF): 30 µM
